Results from the supplement of paper PMC4380931.

Legend:
SKMEL28 [1] = test: apoptotic fraction of cells (caspase-3 NucView488 positive); higher = more apoptosis
Experimental: (§1)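 BRAF V600E/D melanoma cell lines were seeded in 96-well plates, treated in 4 replicates with seven doses (3.16 nM to 3.16 uM) of RAF/MEK inhibitors for 24, 48 or 72 h, and stained with Hoechst 33342 (nuclei) and DEVD-NucView488 caspase-3 substrate. Plates were imaged on an Operetta. Relative viability is the cell count normalised to a DMSO-treated control; apoptosis fraction is the fraction of NucView488-positive nuclei.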

MMACSF = test: as above
Experimental: as §1

K2 = test: as above
Experimental: as §1

COLO858 [2] = test: as above
Experimental: as §1

RVH421 = test: as above
Experimental: as §1

SKMEL28 [3] = test: relative viability (cell count relative to DMSO-treated control) (fraction of DMSO control); higher = more viable cells / less drug effect
Experimental: as §1

COLO858 [4] = test: as above
Experimental: as §1

CCCS(=O)(=O)Nc1ccc(F)c(C(=O)c2c[nH]c3ncc(Cl)cc23)c1F [PLX4720]
Settings	apoptotic fraction of cells, COLO858 [2]	apoptotic fraction of cells, K2	apoptotic fraction of cells, MMACSF	apoptotic fraction of cells, RVH421	apoptotic fraction of cells, SKMEL28 [1]	relative viability, COLO858 [4]	relative viability, SKMEL28 [3]
24 h, 0.00316 µM	0.0469	0.00502	0.0449	0.0586	–	1.03	–
24 h, 0.01 µM	0.0452	0.00388	0.0443	0.0457	–	1.15	–
24 h, 0.0316 µM	0.0424	0.00353	0.0397	0.0542	–	1.21	–
24 h, 0.1 µM	0.0482	0.00321	0.0422	0.052	–	1.17	–
24 h, 0.316 µM	0.0562	0.00817	0.0417	0.0578	–	1.02	–
24 h, 1 µM	0.108	0.0503	0.0492	0.0478	–	0.946	–
24 h, 3.16 µM	0.154	0.153	0.0464	0.0574	–	0.808	–
48 h, 0.00316 µM	0.0522	0.00236	0.0462	0.0464	0.0324	0.968	0.824
48 h, 0.01 µM	0.0523	0.00224	0.0457	0.062	0.0306	1.07	1.43
48 h, 0.0316 µM	0.0462	0.00201	0.0434	0.0512	0.0349	1.06	1.48
48 h, 0.1 µM	0.0498	0.00525	0.0443	0.05	0.035	0.893	1.42
48 h, 0.316 µM	0.0785	0.0166	0.0469	0.058	0.0365	0.538	1.12
48 h, 1 µM	0.184	0.0858	0.0555	0.0593	0.0401	0.407	0.941
48 h, 3.16 µM	0.323	0.173	0.0933	0.0831	0.0568	0.306	0.61
72 h, 0.00316 µM	0.0883	–	0.0394	0.0342	0.0401	1.13	0.973
72 h, 0.01 µM	0.0826	–	0.0424	0.035	0.0409	1.2	0.881
72 h, 0.0316 µM	0.0717	–	0.0386	0.0338	0.0321	1.19	0.968
72 h, 0.1 µM	0.053	–	0.0346	0.0375	0.0301	0.893	0.866
72 h, 0.316 µM	0.0842	–	0.0549	0.0466	0.0373	0.569	0.598
72 h, 1 µM	0.183	–	0.218	0.051	0.0372	0.417	0.458
72 h, 3.16 µM	0.374	–	0.534	0.0617	0.105	0.273	0.389

Cn1cnc2c(F)c(Nc3ccc(Br)cc3Cl)c(C(=O)NOCCO)cc21 [Selumetinib]
Settings	apoptotic fraction of cells, COLO858 [2]	apoptotic fraction of cells, K2	apoptotic fraction of cells, MMACSF	apoptotic fraction of cells, RVH421	apoptotic fraction of cells, SKMEL28 [1]	relative viability, COLO858 [4]	relative viability, SKMEL28 [3]
24 h, 0.00316 µM	0.0501	0.00506	0.0508	0.0531	–	0.844	–
24 h, 0.01 µM	0.0441	0.00321	0.0478	0.0501	–	1.09	–
24 h, 0.0316 µM	0.0433	0.00454	0.0349	0.0442	–	1.24	–
24 h, 0.1 µM	0.0474	0.0128	0.0436	0.0496	–	1.12	–
24 h, 0.316 µM	0.083	0.0266	0.0526	0.0515	–	1.01	–
24 h, 1 µM	0.137	0.123	0.0569	0.0523	–	0.937	–
24 h, 3.16 µM	0.149	0.142	0.0615	0.0612	–	0.856	–
48 h, 0.00316 µM	0.0496	0.0027	0.0481	0.0489	0.0348	0.983	0.799
48 h, 0.01 µM	0.049	0.00331	0.039	0.0601	0.0333	1.05	1.31
48 h, 0.0316 µM	0.0473	0.0058	0.0469	0.0622	0.0343	1.06	1.43
48 h, 0.1 µM	0.0649	0.0372	0.0518	0.0642	0.0355	0.702	1.12
48 h, 0.316 µM	0.155	0.0691	0.0667	0.0635	0.0422	0.455	0.964
48 h, 1 µM	0.232	0.199	0.14	0.0671	0.0573	0.374	0.852
48 h, 3.16 µM	0.313	0.332	0.232	0.0755	0.0991	0.315	0.604
72 h, 0.00316 µM	0.0958	–	0.0392	0.0328	0.036	0.974	1.06
72 h, 0.01 µM	0.0753	–	0.0379	0.0321	0.0338	1.05	0.975
72 h, 0.0316 µM	0.0678	–	0.0318	0.0318	0.0305	0.843	0.804
72 h, 0.1 µM	0.0769	–	0.0807	0.0418	0.037	0.545	0.543
72 h, 0.316 µM	0.134	–	0.193	0.0438	0.0563	0.427	0.449
72 h, 1 µM	0.259	–	0.434	0.0599	0.111	0.342	0.419
72 h, 3.16 µM	0.383	–	0.617	0.0977	0.214	0.28	0.337

CCCS(=O)(=O)Nc1ccc(F)c(C(=O)c2c[nH]c3ncc(-c4ccc(Cl)cc4)cc23)c1F [Vemurafenib]
Settings	apoptotic fraction of cells, COLO858 [2]	apoptotic fraction of cells, K2	apoptotic fraction of cells, MMACSF	apoptotic fraction of cells, RVH421	apoptotic fraction of cells, SKMEL28 [1]	relative viability, COLO858 [4]	relative viability, SKMEL28 [3]
24 h, 0.00316 µM	0.0468	0.00416	0.0413	0.04937	–	0.782	–
24 h, 0.01 µM	0.0448	0.00233	0.0384	0.0545	–	1.02	–
24 h, 0.0316 µM	0.0467	0.00265	0.0409	0.0463	–	1.05	–
24 h, 0.1 µM	0.0418	0.00174	0.0412	0.0489	–	0.988	–
24 h, 0.316 µM	0.0538	0.00473	0.0459	0.0609	–	0.916	–
24 h, 1 µM	0.0998	0.0444	0.0484	0.0547	–	0.824	–
24 h, 3.16 µM	0.151	0.183	0.0553	0.0664	–	0.703	–
48 h, 0.00316 µM	0.0487	0.00306	0.0481	0.0497	0.0412	0.926	0.828
48 h, 0.01 µM	0.0502	0.00257	0.0447	0.0508	0.0316	1.02	1.18
48 h, 0.0316 µM	0.048	0.00173	0.0414	0.0538	0.0337	1	1.18
48 h, 0.1 µM	0.0491	0.00229	0.0439	0.0604	0.0359	0.933	1.07
48 h, 0.316 µM	0.0797	0.0116	0.0499	0.0622	0.0364	0.574	0.973
48 h, 1 µM	0.194	0.0823	0.0573	0.0737	0.038	0.362	0.71
48 h, 3.16 µM	0.453	0.237	0.122	0.0864	0.0538	0.215	0.542
72 h, 0.00316 µM	0.0879	–	0.0401	0.0342	0.0393	1.21	0.955
72 h, 0.01 µM	0.0831	–	0.0441	0.0343	0.0398	1.18	0.88
72 h, 0.0316 µM	0.0746	–	0.0407	0.0341	0.0297	1.31	0.947
72 h, 0.1 µM	0.0587	–	0.0382	0.0335	0.0272	1.15	0.922
72 h, 0.316 µM	0.0687	–	0.0493	0.0444	0.0276	0.68	0.651
72 h, 1 µM	0.25	–	0.265	0.0453	0.0399	0.393	0.491
72 h, 3.16 µM	0.723	–	0.692	0.0682	0.147	0.127	0.39
